# Experimental data taken from ChEMBL document CHEMBL3988442, “University of Dundee, Small-Polar-MMV Screening Library” (2021).
# How the values were obtained:
# Lysine--tRNA ligase = Lysine--tRNA ligase (Plasmodium falciparum (isolate 3D7), UniProt Q8IDJ8); test: Pf-KRS-1 (Lysyl-RNA Synthetase-1, KRS-1, cytosolic KRS) from Plasmodium falciparum. Inhibitor assay, 384 well plate, luminescence read.; type: functional
# ClpP1P2 = ClpP1P2 (Mycobacterium tuberculosis (strain ATCC 25618 / H37Rv), UniProt P9WPC3+P9WPC5); test: in vitro assay to detect presence of AMC directly proportional to the activity of ClpP1P2. GHDDI collaboration.; type: functional
# [1] = microbe, parasite or virus in culture; conditions: Mycobacterium tuberculosis, 72 h, read-out: pIC50 (converted)
# [2] = microbe, parasite or virus in culture; conditions: Mycobacterium tuberculosis, 96 h, read-out: pIC50 (converted)
# Plasmodium falciparum = test: Calibr Malaria Delayed Death Assay SOP; type: functional, organism-based
SMILES,IC50 (Lysine--tRNA ligase),further results
CC(O)CCn1ccc2[nH]c(=O)c(C#N)cc2c1=O (configuration not stated),> 50.1 µM,IC50 (ClpP1P2): > 100 µM
O=C(O)c1c(-c2ccoc2)ncc2c1CCN(C1CCOC1)C2 (configuration not stated),> 50.1 µM,–
CCN(Cc1ccc2c(c1)OCO2)C(=O)NCc1nc(C)cs1,> 50.1 µM,–
Cc1nc(N(C)C)ncc1C(=O)NCCc1csc(-c2cnccn2)n1,> 50.1 µM,–
Cc1nnc(CN2CCCC(CCc3ccccc3C(F)(F)F)C2)o1 (configuration not stated),> 50.1 µM,–
Cc1cccc2c1CCN(c1cc(N3CCCC3CO)ncn1)C2 (configuration not stated),> 50.1 µM,–
CCc1nc(C2CCCN2Cc2noc(Cc3ccccc3)n2)no1 (configuration not stated),> 50.1 µM,–
Cc1nc(N(C)CCCc2nccn2C)c2c(C)nn(C)c2n1,> 50.1 µM,–
COC(=O)c1ccc2ccn(CC3CCCCO3)c(=O)c2c1 (configuration not stated),38.2 µM,–
O=C(CCNC(=O)c1ccoc1)Nc1cccc(F)c1,> 50.1 µM,–
COC(=O)c1ccc2ccn(CC3COCCO3)c(=O)c2c1 (configuration not stated),> 50.1 µM,–
CCc1c(C)[nH]c(C(C)(N)CC)nc1=O (configuration not stated),> 50.1 µM,–
CC(C)CN1C(=O)C2(CCCC2)NC1c1cn(C)c(=O)n(C)c1=O (configuration not stated),> 50.1 µM,–
O=C(CC1COCCN1)N1CCC(N2CCc3ccccc3C2)CC1 (configuration not stated),> 50.1 µM,–
COc1cccc(COCC(=O)N2CCCC(n3cccn3)C2)c1 (configuration not stated),> 50.1 µM,–
Cc1csc(CNC(=O)N(C)Cc2ccc3c(c2)OCCO3)n1,> 50.1 µM,–
CSC(C)C(=O)NCc1ccc(-n2cncn2)nc1 (configuration not stated),> 50.1 µM,–
CCOc1cccc2c1OCC(C(=O)NS(=O)(=O)Cc1ccccc1)=C2,> 50.1 µM,–
CCC[C@@H]1CN(Cc2nnc(-c3cccc(F)c3)o2)C[C@H]1NC(C)=O,> 50.1 µM,–
CCc1nc(CN2CCOC(CN(CC)c3cccnn3)C2)cs1 (configuration not stated),> 50.1 µM,–
Cc1ccc(CS(=O)(=O)NCc2ccco2)cc1,> 50.1 µM,–
O=C(CCNC(=O)c1ccoc1)Nc1cc(F)ccc1F,> 50.1 µM,–
CN(C)c1cc2c(nn1)CCN(C(=O)C1Cc3ccccc3S1)C2 (configuration not stated),> 50.1 µM,–

SMILES,IC50 (Lysine--tRNA ligase),further results
Cc1cc(C(=O)N2CCCC3(COCCN(CCN(C)C)C3)C2)no1 (configuration not stated),> 50.1 µM,–
O=C(c1ccc2c(c1)CCCC2)N1CCCC(n2cncn2)C1 (configuration not stated),> 50.1 µM,–
O=C1CC(c2ccc(O)cc2)c2c(c(C(=O)O)cn2-c2ccccc2)N1 (configuration not stated),> 50.1 µM,–
CN1[C@H](Cn2cncn2)C[C@@H]2CN(Cc3cccc(C#N)c3)CC[C@@H]21,> 50.1 µM,–
COCCOc1ccccc1C(=O)N(C)Cc1ncc(C)c(OC)c1C,> 50.1 µM,–
Cc1ccnc(NCCNC(=O)C2CC3(CCNCC3)CN2C)c1 (configuration not stated),> 50.1 µM,–
O=C(CC1CCCC1)N1CC[C@H]2[C@H]1CCN2c1nncs1,> 50.1 µM,–
Cc1sc(Oc2ccccc2Cl)nc1C(=O)O,> 50.1 µM,–
Cc1cnn(CC2CCCN2C(=O)c2cccc3c2OCO3)c1 (configuration not stated),> 50.1 µM,–
CSc1cccc(CN(C)C(=O)Nc2nc(C)n(C)n2)c1,> 50.1 µM,–
COc1ccccc1N1CCC(N2CCOCC(CO)C2)CC1 (configuration not stated),> 50.1 µM,–
C/C=C(\C)CN1C[C@H](NC(=O)CCOC)[C@@H](c2ccc(C)o2)C1,> 50.1 µM,–
COc1ccc(-n2nnc(C(=O)NCC3CCCCC3)n2)cc1,> 50.1 µM,–
O=C(O)c1cc(-c2cc[nH]n2)cc(S(=O)(=O)N2CCCCCC2)c1,> 50.1 µM,–
Cc1nc(NC(=O)CN2CCOC(Cn3cccn3)C2)sc1C (configuration not stated),> 50.1 µM,–
CCCC(=O)N1CCCCC1C(=O)Nc1ccc(-c2nnc[nH]2)cc1 (configuration not stated),> 50.1 µM,–
CC(=O)N1CC(=O)N(c2ccsc2)CC12CCN(Cc1ccccn1)C2 (configuration not stated),> 50.1 µM,–
CCc1nnsc1C(=O)N1CCCN(Cc2ccccc2)CC1,> 50.1 µM,–
Cn1c(CN2CCCc3cc(F)cc(F)c32)cc(=O)n(C)c1=O,> 50.1 µM,–
Cc1cc(C2CCC2)nc(N2CCC3(CC2)OCCCC3O)n1 (configuration not stated),> 50.1 µM,–
Cc1ccc(-n2nnc(C(=O)NCC3CCCCC3)n2)cc1,> 50.1 µM,–
CS(=O)(=O)c1ccc(CNC(=O)N2CCC(C(N)=O)C2)cc1 (configuration not stated),> 50.1 µM,–
c1cc(-c2cn[nH]c2)ncc1CN1CCCCC1,> 50.1 µM,–

SMILES,IC50 (Lysine--tRNA ligase),further results
COc1ccccc1CNc1ccc2nncn2n1,> 50.1 µM,–
CC(C)CN1C[C@H]2CCN(C(=O)C3CCCO3)CC[C@H]2S1(=O)=O (some centres not stated),> 50.1 µM,IC50 [1]: > 50.1 µM; IC50 [2]: > 50.1 µM
Cn1cnnc1C1CCCN(C(=O)c2ccc3c(c2)OCCO3)C1 (configuration not stated),> 50.1 µM,–
Cc1ccc(CN2CCN(Cc3ccncc3)[C@@H]3CS(=O)(=O)C[C@@H]32)cc1,> 50.1 µM,–
CC(Nc1ccn(Cc2ccccn2)n1)C(=O)NC(C)(C)C (configuration not stated),> 50.1 µM,–
CC(C)SCCn1ccc2[nH]c(=O)c(C#N)cc2c1=O,> 50.1 µM,–
CCCc1ccc(CN2CCN(C(=O)C(C)C)[C@@H]3CS(=O)(=O)C[C@@H]32)o1,> 50.1 µM,–
COc1ccc(NC(=O)N2CCCC2c2ccncc2)cn1 (configuration not stated),> 50.1 µM,–
O=c1[nH]c2c(c(=O)n1C1CCCCC1)CCC2Nc1ccccn1 (configuration not stated),> 50.1 µM,–
O=C(c1c[nH]nn1)N1CCCC1C1CCCCC1 (configuration not stated),42.3 µM,–
COc1c(F)cc(-c2cn(CCn3c(C)cc(C)nc3=O)nn2)cc1Cl,> 50.1 µM,–
Cc1cc(C)c2nc(CNC3CCCNC3=O)cc(O)c2c1 (configuration not stated),> 50.1 µM,–
Cc1nc(CN2CCCC(CCc3ccccc3C(F)(F)F)C2)co1 (configuration not stated),> 50.1 µM,–
Cc1nc(N(C)CCCc2nccn2C)c2nc(C)oc2n1,> 50.1 µM,–
O=C(CCNC(=O)c1ccoc1)Nc1cc(F)cc(F)c1,> 50.1 µM,–
CO[C@H]1CC[C@H]2[C@H]1OCCN2C(=O)CC1=CCCCC1,> 50.1 µM,–
O=C(c1ccccn1)N1CCCN(Cc2nnc(C3CC3)o2)CC1,> 50.1 µM,–
Cc1cc(C)n(C2CN(c3ncnc4[nH]ccc34)C2)n1,> 50.1 µM,–
c1ccc(CCN2CCCC(Cn3ccnc3)C2)cc1 (configuration not stated),> 50.1 µM,–
COCc1cc(N(CC(F)F)C2CC2)n2ncnc2n1,> 50.1 µM,–
Cc1ccn2ncc(C(=O)N3CCCC(n4nc(C)nc4C)C3)c2n1 (configuration not stated),> 50.1 µM,–
CCOC(=O)C1CCCN(Cc2cc(C#N)n(C)c2C)C1 (configuration not stated),> 50.1 µM,–
Fc1ccc(C2(CNC3=NCCN3)CCCC2)cc1.I,> 50.1 µM,pIC50 (Plasmodium falciparum): 6.191; IC50 (Plasmodium falciparum; Plasmodium falciparum): 0.629 µM

SMILES,IC50 (Lysine--tRNA ligase),further results
Cc1nnc(NCCn2nc(C)c(Cl)c2C)o1,> 50.1 µM,–
COc1ccc(OC)c(C(=O)N(C)Cc2ncc(C)c(OC)c2C)c1,> 50.1 µM,–
CCc1n[nH]c(C2CN(Cc3nc(C4CC4)no3)CCO2)n1 (configuration not stated),> 50.1 µM,–
CCOCC1CN(Cc2ccc(OC)cc2)Cc2nn(CC3CC3)cc21 (configuration not stated),> 50.1 µM,–
c1cnn(C2CN(c3ncnc4[nH]ccc34)C2)c1,> 50.1 µM,–
COCCCN1CCCC12CCN(Cc1cccnc1OC)CC2,> 50.1 µM,–
CCOc1ccc(CC(CNC(=O)c2ccoc2C)C(N)=O)cc1 (configuration not stated),> 50.1 µM,–
Cc1ncc(CN2CCOC(CN(C)c3cccnn3)C2)s1 (configuration not stated),> 50.1 µM,–
COCCOc1ccc(NC(=O)N2CCCC2c2ccsc2)cn1 (configuration not stated),> 50.1 µM,–
COc1ccc(/C=C/CN2C[C@H]3CC[C@@H]2CN(S(=O)(=O)N(C)C)C3)cc1,> 50.1 µM,–
CC1CCC(N2Cc3nc(N)ncc3C2=O)CC1 (configuration not stated),> 50.1 µM,–
Cc1ccc(C(=O)NCc2cc(F)ccc2N2CCCN(C)CC2)o1,> 50.1 µM,–
CC(C)c1nccn1C1CCCN(C(=O)c2cccc3[nH]ncc23)C1 (configuration not stated),> 50.1 µM,–
Cc1ccc(C)c2c(O)cc(CN[C@H]3CCCCNC3=O)nc12,> 50.1 µM,–
CSCCC(O)C(=O)N1CCCN(Cc2cccnc2)CC1 (configuration not stated),> 50.1 µM,–
Cc1ccc(C2(O)CCN(Cc3nc(C)n4ccccc34)CC2)nc1,> 50.1 µM,–
COCCN1CCOCC12CCN(c1ccc(C#N)cc1)CC2,> 50.1 µM,–
CNC(=O)c1ccc2c(c1)C1(CCN(CC(C)C)CC1)C(=O)N2,> 50.1 µM,–
CCOCC1CN(C(=O)c2cnoc2C)Cc2cn(CC3CC3)nc21 (configuration not stated),> 50.1 µM,–
CSCCCN1CCCC(Cn2ccnc2)C1 (configuration not stated),> 50.1 µM,–
O=C1CC(c2ccc(C(=O)O)cc2)c2ncn(-c3cccc(F)c3)c2N1 (configuration not stated),> 50.1 µM,–
COCCCN1CC2(CCCCN2C(=O)C2CCCCC2)CC1=O (configuration not stated),> 50.1 µM,–
Cc1nc(CN2CCCC(CCc3cccc(C(F)(F)F)c3)C2)co1 (configuration not stated),> 50.1 µM,IC50 [1]: 33.3 µM; IC50 [2]: 41.8 µM

SMILES,IC50 (Lysine--tRNA ligase),further results
O=C(c1nc(=O)[nH][nH]1)N1CCC2(CCCCC2)C1,> 50.1 µM,–
Cc1ccc(N2CC[C@H](OCC3CC3)[C@@H]2Cc2cnn(C)c2)nn1,> 50.1 µM,–
CCCc1ccc(CN2CCN(C(=O)CC(C)C)[C@@H]3CS(=O)(=O)C[C@@H]32)o1,> 50.1 µM,–
COc1cc(CNCCn2ccnc2)cc2c1OCO2,> 50.1 µM,–
O=C(NCc1csc(Br)c1)c1cnccn1,> 50.1 µM,–
Cc1csc(CNC(=O)NCc2ccc3c(c2)OCCO3)n1,> 50.1 µM,–
Cc1nc(CN2CCC3(CCCO3)CC2)c2ccccn12,> 50.1 µM,–
CCCS(=O)(=O)N1CCOC2(COCCN(C(C)=O)C2)C1 (configuration not stated),> 50.1 µM,–
Cc1nc[nH]c1CN1CCn2nc(CN3CC[C@H](F)C3)cc2C1,> 50.1 µM,–
COc1ccc(CC(=O)N2CCCC(c3nncn3C)C2)cc1 (configuration not stated),> 50.1 µM,–
Cc1cc(C)c2c(NCC3(O)CCCCC3)ncnc2n1,> 50.1 µM,–
COCC1CN(C(=O)Cc2ccccn2)Cc2ncn(C)c21 (configuration not stated),> 50.1 µM,–
CCN(C)C(=O)c1cc(-c2ccn(C(C)C)n2)n2ccccc12,> 50.1 µM,–
CN(C)CCNC(=O)c1ccc(S(=O)(=O)N[C@@H]2CCNC2)cc1,> 50.1 µM,–
CN(C)CCn1ccnc1C1CCN(c2cc(N)nc(N)n2)CC1,> 50.1 µM,–
O=C(Cc1ccc(Cl)s1)Nc1ccc2c(c1)C(=O)NC2=O,> 50.1 µM,–
O=c1c(CN2CCOCC2)coc2ccc(Cl)cc12,> 50.1 µM,–
CC(C)C1CN(C(=O)c2cc(=O)[nH]c(=O)[nH]2)CCCN1CC1CC1 (configuration not stated),> 50.1 µM,–
CCN1CC(C(=O)N2CCN(CCn3cccc3)CC2)CC1=O (configuration not stated),> 50.1 µM,–
Cc1cc2ccccc2n1CCC(=O)N1CCCCC1CCO (configuration not stated),> 50.1 µM,–
CN1C[C@@H]2CC[C@H](CC1=O)N2C(=O)c1ccc(-c2ccccc2)[nH]c1=O,> 50.1 µM,–
Cc1cc(C(N)=O)ccc1NC(=O)c1nc(N2CCCC2)ncc1Cl,> 50.1 µM,–
O=C(c1cnc(-c2cccs2)s1)N1CCCC(n2cccn2)C1 (configuration not stated),> 50.1 µM,–
